Consider 15 molecules from ChEMBL document CHEMBL3045406, “Enantioselective Relieving Activity of α-Methylbenzylphenylureas toward Bensulfuron-methyl Injury to Rice (Oryza sativa)” (Biosci Biotechnol Biochem, 1999).

The test system of data set [1] is Oryza sativa. Description: Relieving activity against bensulfuron-methyl induced injury to Oryza sativa (rice) assessed as growth rate at 1 uM (Rbv = 46 to 53%). It counts as functional.
Data set [2] relates to Oryza sativa. The data set can be described thus: Relieving activity against bensulfuron-methyl induced injury to Oryza sativa (rice) assessed as growth rate at 10 uM (Rbv = 46 to 53%). It is filed as functional.
In data set [3] the test system is Oryza sativa. The data set can be described thus: Safener indices, ratio of compound effect of Oryza sativa (rice) growth rate to relieving activity against bensulfuron-methyl induced injury to Oryza sativa growth rate at 10 uM.
Data set [4] can be described thus: Hydrophobicity, log K of the compound. It counts as physicochemical. Conditions: octanol/water.
The subject of data set [5] is Oryza sativa. The data set can be described thus: Effect on Oryza sativa (rice) assessed as growth rate at 10 uM relative to control. It counts as organism-based. Conditions: in vivo.
For data set [6], the system named is Oryza sativa. Description: Safener indices, ratio of compound effect of Oryza sativa (rice) growth rate to relieving activity against bensulfuron-methyl induced injury to Oryza sativa growth rate at 0.1 uM.
Data set [7] concerns Oryza sativa. Description: Relieving activity against bensulfuron-methyl induced injury to Oryza sativa (rice) assessed as growth rate at 0.1 uM (Rbv = 46 to 53%). It counts as functional.
Data set [8] has as its system Oryza sativa. The data set can be described thus: Effect on Oryza sativa (rice) assessed as growth rate at 0.1 uM relative to control. It is filed as organism-based. Conditions: in vivo.
For data set [9], the system named is Oryza sativa. Description: Safener indices, ratio of compound effect of Oryza sativa (rice) growth rate to relieving activity against bensulfuron-methyl induced injury to Oryza sativa growth rate at 1 uM.
In data set [10] the test system is Oryza sativa. The data set can be described thus: Effect on Oryza sativa (rice) assessed as growth rate at 1 uM relative to control. It is filed as organism-based. Conditions: in vivo.

In the case of `CCc1ccccc1NC(=O)N[C@H](C)c1ccccc1`, the Activity stood at 55% in data set [1]; 72% in data set [2]; 92% in data set [5]; 52% in data set [7]; 101% in data set [8]; 100% in data set [10]. In addition, the Ratio in data set [3] came out at 47; in data set [6], 1; in [9], 8. In data set [4], the “log K” value came to 0.422.
Take `COc1ccccc1NC(=O)N[C@@H](C)c1ccccc1`: the Activity was determined as 68% in data set [1]; 74% in [2]; 95% in data set [5]; 55% in data set [7]; 98% in data set [8]; 99% in data set [10]. Further, the Ratio came to 46 in [3], 9 in [6] and 28 in data set [9]. Besides, the “log K” value in data set [4] was 0.343.
For `CCCCCCCc1ccc(NC(=O)N[C@@H](C)c2ccccc2)cc1`, the Activity stood at 53% in data set [1]; 59% in [2]; 99% in data set [5]; 51% in data set [7]; 100% in [8]; 99% in [10]. For the same molecule, the Ratio in data set [3] is on record as 21; in [6] it was 4; in [9], 9. For the same molecule, the “log K” value in data set [4] is recorded as 1.266.
With `CCOC(=O)c1ccccc1NC(=O)N[C@@H](C)c1ccccc1`, the Activity in [1] was 60%; in data set [2], 67%; in data set [5], 100%; in [7] it was 50%; in data set [8], 100%; in data set [10] it was 100%. The Ratio is given as 34 in data set [3], 0 in data set [6] and 21 in data set [9]. For the same molecule, in [4], the “log K” value came out at 0.667.
For `C[C@H](NC(=O)Nc1cccc(F)c1)c1ccccc1`, the Activity worked out at 74% in data set [1]; 79% in data set [2]; 88% in [5]; 59% in [7]; 97% in data set [8]; 94% in data set [10]. Moreover, the Ratio in [3] was determined as 62; in data set [6] it was 21; in data set [9], 51. Moreover, the “log K” value in [4] is given as 0.363.
In the case of `C[C@H](NC(=O)Nc1cccc(I)c1)c1ccccc1`, the Activity in [1] is listed as 83%; in [2] it was 90%; in data set [5], 93%; in data set [7] it was 72%; in data set [8] it was 98%; in data set [10], 95%. In addition, the Ratio in [3] is 80; in data set [6], 43; in [9] it was 66. In data set [4], the “log K” value was 0.568.
Take `CC(C)c1cccc(NC(=O)N[C@H](C)c2ccccc2)c1`: the Activity in data set [1] was determined as 48%; in data set [2] it was 43%; in [5], 44%; in [7], 45%; in data set [8] it was 74%; in data set [10], 61%. The Ratio in data set [3] is listed as 29; in data set [6], 16; in data set [9], 27. For the same molecule, the “log K” value in [4] came out at 0.58.
Turning to `CC(C)c1ccc(NC(=O)N[C@@H](C)c2ccccc2)cc1`, the Activity in data set [1] is recorded as 83%; in data set [2], 79%; in data set [5] it was 86%; in data set [7], 57%; in data set [8], 98%; in data set [10], 96%. In addition, the Ratio in [3] came out at 66; in data set [6] it was 21; in [9], 69. Further, the “log K” value in data set [4] is on record as 0.577.
Turning to `COc1ccc(NC(=O)N[C@H](C)c2ccccc2)cc1`, the Activity was found to be 58% in data set [1]; 78% in data set [2]; 93% in data set [5]; 53% in data set [7]; 109% in [8]; 101% in [10]. Further, the Ratio was 56 in data set [3], -11 in [6] and 7 in data set [9]. Further, the “log K” value in data set [4] was determined as 0.211.
For `C[C@@H](NC(=O)Nc1c(Cl)cccc1Cl)c1ccccc1`, the Activity in data set [1] was 61%; in [2], 61%; in data set [5] it was 100%; in data set [7] it was 57%; in data set [8] it was 100%; in data set [10] it was 99%. The Ratio stood at 21 in data set [3], 12 in data set [6] and 19 in data set [9]. Besides, the “log K” value in data set [4] amounted to 0.326.
With `CCc1ccc(NC(=O)N[C@@H](C)c2ccccc2)cc1`, the Activity in [1] is 80%; in data set [2] it was 84%; in data set [5], 91%; in data set [7] it was 74%; in data set [8] it was 99%; in [10], 95%. In addition, the Ratio in [3] is 72; in data set [6] it was 7; in data set [9] it was 62. Also, in [4], the “log K” value was 0.487.
Regarding `CCOC(=O)c1ccc(NC(=O)N[C@H](C)c2ccccc2)cc1`, the Activity in [1] turned out to be 78%; in data set [2] it was 89%; in [5], 92%; in data set [7], 56%; in data set [8], 101%; in data set [10] it was 100%. Also, the Ratio is given as 79 in [3], 11 in [6] and 56 in [9]. For the same molecule, the “log K” value in data set [4] is listed as 0.415.
Take `Cc1ccc(NC(=O)N[C@@H](C)c2ccccc2)c(F)c1`: the Activity in [1] is 87%; in [2] it was 95%; in data set [5], 100%; in [7], 77%; in [8] it was 100%; in data set [10], 99%. Besides, the Ratio in data set [3] came to 89; in data set [6] it was 53; in data set [9], 72. Further, in data set [4], the “log K” value is reported as 0.459.
With `C[C@H](NC(=O)Nc1cc(C(F)(F)F)ccc1F)c1ccccc1`, the Activity worked out at 79% in data set [1]; 84% in [2]; 87% in [5]; 64% in data set [7]; 98% in data set [8]; 89% in [10]. In addition, the Ratio is given as 70 in [3], 26 in data set [6] and 59 in data set [9]. Also, in [4], the “log K” value is 0.64.
Regarding `C[C@@H](NC(=O)Nc1ccccc1Cl)c1ccccc1`, the Activity in data set [1] came to 63%; in [2] it was 83%; in data set [5], 93%; in data set [7], 53%; in [8], 101%; in [10], 103%. Also, the results for the Ratio in [3], in data set [6] and in data set [9] were 67, 3 and 21, respectively. The “log K” value in data set [4] is 0.486.
